Glass transition temperature data for 61 molecules are collected here from the PolyMetriX glass transition set.

`*/C(Cl)=C(/*)CCCCCCCC` (repeat unit): the glass transition temperature was found to be 90.00 °C.
As to `*C(=O)OCCN(CCOC(=O)c1ccc2c(c1)C(=O)N(c1cccc(N3C(=O)c4ccc(*)cc4C3=O)c1)C2=O)c1ccc(/N=N/c2ccc(C)cc2)cc1` (repeat unit), the glass transition temperature stood at 171.00 °C.
The result for `*CC#CC#CCOc1ccc(C(=O)OCCN(CCOC(=O)c2ccc(O*)cc2)c2ccc(/N=N/c3ccc(/N=N/c4cc(C)c(C#N)c(C)c4)cc3)cc2)cc1` (repeat unit) reads 120.00 °C; that for `*CC(=O)NCC(=O)O*` (repeat unit), 67.00 °C.
The molecule `*CC(=O)NCCCCCCNC(=O)COC(=O)CCCCCCCCC(=O)O*` (repeat unit) had a glass transition temperature of 2.00 °C.
In turn, `*CC(=O)Nc1ccc(C2(c3ccc(NC(=O)c4ccc5c(c4)C(=O)N(*)C5=O)cc3)c3ccccc3-c3ccccc32)cc1` (repeat unit) displayed a glass transition temperature of 345.00 °C.
`*CC(=O)Nc1ccc(Cc2ccc(NC(=O)c3ccc4c(c3)C(=O)N(*)C4=O)cc2)cc1` (repeat unit) came in with a glass transition temperature of 266.00 °C.
As for `*CC(=O)Nc1ccc(Oc2ccc(Oc3ccc(NC(=O)CN4C(=O)c5ccc(C(=O)c6ccc7c(c6)C(=O)N(*)C7=O)cc5C4=O)cc3)cc2)cc1` (repeat unit), the glass transition temperature was found to be 230.00 °C.
For `*CC(=O)Nc1ccc(Oc2cccc(NC(=O)CN3C(=O)c4ccc(C(=O)c5ccc6c(c5)C(=O)N(*)C6=O)cc4C3=O)c2)cc1` (repeat unit), the glass transition temperature came to 226.00 °C.
`*CC(=O)Nc1ccc(Oc2cccc(Oc3ccc(NC(=O)CN4C(=O)c5ccc(C(c6ccc7c(c6)C(=O)N(*)C7=O)(C(F)(F)F)C(F)(F)F)cc5C4=O)cc3)c2)cc1` (repeat unit) came in with a glass transition temperature of 221.00 °C.
With `*CC(=O)Nc1ccc(S(=O)(=O)c2ccc(NC(=O)c3ccc4c(c3)C(=O)N(*)C4=O)cc2)cc1` (repeat unit), the glass transition temperature was found to be 232.00 °C.
The molecule `*CC(C)(C)COC(=O)CCC(=O)O*` (repeat unit) had a glass transition temperature of -18.00 °C.
Regarding `*CC(C)(C)CS(=O)(=O)CC(C)(C)COC(=O)NCCCCCCNC(=O)O*` (repeat unit), the glass transition temperature stood at 30.00 °C.
`*CC(C)(CC)COC(=O)CCCCCCCCC(=O)O*` (repeat unit): the glass transition temperature is -69.00 °C.
On to `*CC(C)(CCC)C(=O)O*` (repeat unit), for which the glass transition temperature was 1.90 °C.
The result for `*CC(C)C(=O)N*` (repeat unit) reads 96.00 °C; that for `*CC(C)C(=O)O*` (repeat unit), -25.00 °C.
In turn, `*CC(CCCCCCCC)COC(=O)NC(=O)c1cccc(C(=O)NC(=O)O*)c1` (repeat unit) came in with a glass transition temperature of 65.00 °C.
Molecule `*CC(CCCCCCCCCCCC)COC(=O)NC(=O)c1cccc(C(=O)NC(=O)O*)c1` (repeat unit) had a glass transition temperature of 112.00 °C.
In the case of `*CC(CCCCCCOc1ccc(/N=N/c2ccc(C#N)cc2)cc1)COC(=O)CCCCCCCCCCCCC(=O)O*` (repeat unit) it was 21.50 °C; in that of `*CCC(=O)NCc1cc(C)c(CNC(=O)CCO*)cc1C` (repeat unit), 80.00 °C.
In turn, `*CCC(C)(C)CC(C)CNC(=O)CCCCC(=O)N*` (repeat unit) registered a glass transition temperature of 65.00 °C.
Molecule `*CCC(C)(C)CC(C)CNC(=O)c1ccc(C(=O)N*)cc1` (repeat unit) returned a glass transition temperature of 148.00 °C.
`*CCC(C)(C)CC(C)COC(=O)CCCCC(=O)O*` (repeat unit) showed a glass transition temperature of -70.00 °C.
Take `*CCC(C)O*` (repeat unit): the glass transition temperature is -50.00 °C.
`*CCCCCCCC(=O)OCC1(C)COC(*)OC1` (repeat unit) yielded a glass transition temperature of -26.00 °C.
Turning to `*CCCCSS*` (repeat unit), the glass transition temperature was -55.00 °C.
The result for `*CCN(CCOC(=O)Nc1ccc(C)c(NC(=O)O*)c1)c1ccc(/N=N/c2ccc(B(c3c(C)cc(C)cc3C)c3c(C)cc(C)cc3C)cc2)cc1` (repeat unit) reads 159.00 °C; that for `*CCN(CCOC(=O)Nc1ccc(C)c(NC(=O)O*)c1)c1ccc(/N=N/c2ccc([N+](=O)[O-])cc2C)c(C)c1` (repeat unit), 135.00 °C; that for `*CCN(CCOC(=O)Nc1ccc(C)c(NC(=O)O*)c1)c1ccc([N+](=O)[O-])cc1C` (repeat unit), 98.00 °C.
In the case of `*CCN(CCOC(=O)Nc1ccc(Cc2ccc(NC(=O)O*)cc2)cc1)c1ccc(/N=N/c2ccc([N+](=O)[O-])cc2)c(C)c1` (repeat unit) it was 115.00 °C.
In the case of `*CCN(CCOC(=O)Nc1ccc(Cc2ccc(NC(=O)O*)cc2)cc1)c1ccc(/N=N/c2ccc([N+](=O)[O-])cc2C)c(C)c1` (repeat unit) it was 130.00 °C.
Molecule `*CCN(CCOC(=O)c1cccc(C(=O)O*)c1)c1ccc(/N=N/c2ccc(-c3nc4ccc([N+](=O)[O-])cc4n3CC)cc2)cc1` (repeat unit) displayed a glass transition temperature of 147.00 °C.
In the case of `*CCOC(=O)CCSCCC(=O)O*` (repeat unit) it was -43.00 °C; in that of `*CCOCCC(=O)O*` (repeat unit), -35.00 °C; in that of `*CCOCCOCCOC(=O)CCSCCC(=O)O*` (repeat unit), -35.00 °C.
For `*CCOCCOCCOCCOCCOC(=O)CCSCCC(=O)O*` (repeat unit), the glass transition temperature is -39.00 °C.
In the case of `*CCc1ccc(*)c(Cl)c1` (repeat unit) it was 75.00 °C.
`*CCc1ccc(*)c2ccccc12` (repeat unit): the glass transition temperature came out at 160.00 °C.
For the molecule `*CCc1cccc(*)c1` (repeat unit), the glass transition temperature was 9.00 °C.
`*Cc1c(C)c(C)c(CNC(=O)CCCCCC(C)CC(=O)N*)c(C)c1C` (repeat unit) displayed a glass transition temperature of 211.00 °C.
For the molecule `*Cc1cc(CNC(=O)CCCCC(=O)N*)cc(C(C)(C)C)c1` (repeat unit), the glass transition temperature stood at 109.00 °C.
The molecule `*Cc1cc(COC(=O)Nc2ccc(Cc3ccc(NC(=O)O*)cc3)cc2)cc(C(C)(C)C)c1` (repeat unit) showed a glass transition temperature of 114.00 °C.
`*Oc1ccc(C(=O)OCCN(CCOC(=O)c2ccc(OC3(F)C(*)(F)C(F)(F)C3(F)F)cc2)c2ccc(/C=C/C3=CC(=C(C#N)C#N)CC(C)(C)C3)cc2)cc1` (repeat unit) gave a glass transition temperature of 143.00 °C.
In turn, `*Oc1ccc(CC(NC(=O)CCc2ccc(OC(=O)CCCC(*)=O)cc2)C(=O)OCc2ccccc2)cc1` (repeat unit) gave a glass transition temperature of 66.00 °C.
In the case of `*Oc1ccc(CC(NC(=O)CCc2ccc(OC(=O)CCCCCCC(*)=O)cc2)C(=O)OCc2ccccc2)cc1` (repeat unit), the glass transition temperature stood at 47.00 °C.
As to `*Oc1ccc(CC(NC(=O)CCc2ccc(OC(=O)COCCOCC(*)=O)cc2)C(=O)OCc2ccccc2)cc1` (repeat unit), the glass transition temperature is 55.00 °C.
In the case of `*Oc1ccc(NC(=O)c2cc(C(=O)Nc3ccc(*)cc3)cc(C(C)(C)C)c2)cc1` (repeat unit) it was 268.00 °C.
With `*Oc1ccc(NC(=O)c2cc(NC(=O)CCCCCCCCCCN3C(=O)c4ccccc4C3=O)cc(C(=O)Nc3ccc(*)cc3)c2)cc1` (repeat unit), the glass transition temperature amounted to 160.00 °C.
In the case of `*Oc1ccc(NC(=O)c2cc(NC(=O)c3ccc(OC(C)=O)cc3)cc(C(=O)Nc3ccc(*)cc3)c2)cc1` (repeat unit), the glass transition temperature was determined as 273.00 °C.
`*Oc1ccc(NC(=O)c2cc(NC(=O)c3ccccc3)cc(C(=O)Nc3ccc(*)cc3)c2)cc1` (repeat unit) showed a glass transition temperature of 294.50 °C.
With `*Oc1ccc(NC(=O)c2cc(NC(=O)c3ccncc3)cc(C(=O)Nc3ccc(*)cc3)c2)cc1` (repeat unit), the glass transition temperature came to 305.00 °C.
The result for `*Oc1ccc(S(=O)(=O)c2ccc(Oc3ccc(NC(=O)c4cc(C(=O)Nc5ccc(*)cc5)cc(C(C)(C)C)c4)cc3)cc2)cc1` (repeat unit) reads 232.50 °C; that for `*Oc1ccc(S(=O)(=O)c2ccc(Oc3ccc(NC(=O)c4cc(NC(=O)c5ccc(OC(C)=O)cc5)cc(C(=O)Nc5ccc(*)cc5)c4)cc3)cc2)cc1` (repeat unit), 263.00 °C.
The result for `*Oc1ccc(S(=O)(=O)c2ccc(Oc3ccc(NC(=O)c4cc(NC(=O)c5ccncc5)cc(C(=O)Nc5ccc(*)cc5)c4)cc3)cc2)cc1` (repeat unit) reads 283.00 °C; that for `*Oc1cccc(Oc2ccc(NC(=O)c3cc(NC(=O)c4ccc(OC(C)=O)cc4)cc(C(=O)Nc4ccc(*)cc4)c3)cc2)c1` (repeat unit), 230.00 °C; that for `*Oc1cccc2ccc(Oc3ccc(NC(=O)c4cc(C(=O)Nc5ccc(*)cc5)cc(C(C)(C)C)c4)cc3)cc12` (repeat unit), 263.00 °C.
The result for `*c1ccc(-c2nc3cc(Oc4ccc(NC(=O)CN5C(=O)c6ccc(C(c7ccc8c(c7)C(=O)N(CC(=O)Nc7ccc(Oc9ccc%10nc(-c%11ccccc%11)c(*)nc%10c9)cc7)C8=O)(C(F)(F)F)C(F)(F)F)cc6C5=O)cc4)ccc3nc2-c2ccccc2)cc1` (repeat unit) reads 280.00 °C; that for `*c1ccc(-c2nc3cc(Oc4ccc(NC(=O)CN5C(=O)c6ccc(C(c7ccc8c(c7)C(=O)N(CC(=O)Nc7ccc(Oc9ccc%10nc(-c%11ccccc%11)c(-c%11ccc(N%12C(=O)c%13ccc%14c%15c(ccc(c%13%15)C%12=O)C(=O)N(*)C%14=O)cc%11)nc%10c9)cc7)C8=O)(C(F)(F)F)C(F)(F)F)cc6C5=O)cc4)ccc3nc2-c2ccccc2)cc1` (repeat unit), 306.00 °C.
`*c1ccc(OCCN(CCOc2ccc(-c3nc4ccc(Oc5ccc6nc(*)c(-c7ccccc7)nc6c5)cc4nc3-c3ccccc3)cc2)c2ccc(/C=C/c3ccc([N+](=O)[O-])cc3)cc2)cc1` (repeat unit) gave a glass transition temperature of 201.00 °C.
`*c1ccc(Oc2ccc(NC(=O)CN3C(=O)c4ccc(C(c5ccc6c(c5)C(=O)N(CC(=O)Nc5ccc(Oc7ccc(-c8nnc(*)o8)cc7)cc5)C6=O)(C(F)(F)F)C(F)(F)F)cc4C3=O)cc2)cc1` (repeat unit) registered a glass transition temperature of 263.00 °C.
